The target of test [1] is T1, human full length PIK3KA Wild-type (p110α/p85α complex) (Homo sapiens, UniProt P42336).
T1 construct: Recombinant, catalytically active human full length PIK3KA Wild-type and H1047R mutant were purchased as 1:1 complex; 6xHis (N); purchased EMD Millipore Sigma 14-602M
The experiment in a line: PI3K-alpha kinase (PIK3CA) biochemical activity, wild-type, ADP-Glo. The following applies: PI3K-α (PIK3CA) biochemical, Soy PI lipid substrate. The gist of the method: (§1)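 ADP formation, read by ADP-Glo, is run to about 10% ATP turnover at 27 °C with 20 μM ATP and 50 μM PIP2diC8 or soy PI. WT or H1047R p110α/p85α (1–5 nM) is pre-incubated 1 h with compound in HEPES pH 7.4/MgCl2/Triton buffer, 1% DMSO. 10-point 1:3 series, logistic IC50 versus no-enzyme and DMSO controls.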
In general terms: ADP-Glo turns the ADP formed in a reaction into a luminescent signal.

Test [2] concerns the target T2, human full length PIK3KA H1047R mutant (p110α/p85α complex) (Homo sapiens, UniProt P42336, H1047R).
T2 construct: Recombinant, catalytically active human full length PIK3KA Wild-type and H1047R mutant were purchased as 1:1 complex; 6xHis (N); purchased EMD Millipore Sigma 14-792M
The experiment in a line: PI3K-alpha kinase (PIK3CA) biochemical activity, H1047R mutant, ADP-Glo. Conditions: PI3K-α (PIK3CA) biochemical, H1047R mutant, Soy PI lipid substrate. The gist of the method:
as §1

The subject of test [3] is PI3K-α (PIK3CA) in MDA-MB-453 cells. The experiment in a line: PI3K-alpha kinase (PIK3CA) activity in vitro cell based assay, MDA-MB-453 cells, AlphaLisa SureFire. The following applies: 0% FBS, 3 hours treatment, relative IC50. The gist of the method: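 MDA-MB-453 cells in serum-free MEM with 1 μg/mL insulin treated 3 h with 10-point 1:3 compound dilutions, 0.3% DMSO. Lysates read by AlphaLisa SureFire; percent inhibition relative to DMSO (max) and 1 μM GDC-0032 (min), duplicate means fitted to 4-parameter logistic for relative IC50.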

T2 sequence (P42336 whole entry H1047R): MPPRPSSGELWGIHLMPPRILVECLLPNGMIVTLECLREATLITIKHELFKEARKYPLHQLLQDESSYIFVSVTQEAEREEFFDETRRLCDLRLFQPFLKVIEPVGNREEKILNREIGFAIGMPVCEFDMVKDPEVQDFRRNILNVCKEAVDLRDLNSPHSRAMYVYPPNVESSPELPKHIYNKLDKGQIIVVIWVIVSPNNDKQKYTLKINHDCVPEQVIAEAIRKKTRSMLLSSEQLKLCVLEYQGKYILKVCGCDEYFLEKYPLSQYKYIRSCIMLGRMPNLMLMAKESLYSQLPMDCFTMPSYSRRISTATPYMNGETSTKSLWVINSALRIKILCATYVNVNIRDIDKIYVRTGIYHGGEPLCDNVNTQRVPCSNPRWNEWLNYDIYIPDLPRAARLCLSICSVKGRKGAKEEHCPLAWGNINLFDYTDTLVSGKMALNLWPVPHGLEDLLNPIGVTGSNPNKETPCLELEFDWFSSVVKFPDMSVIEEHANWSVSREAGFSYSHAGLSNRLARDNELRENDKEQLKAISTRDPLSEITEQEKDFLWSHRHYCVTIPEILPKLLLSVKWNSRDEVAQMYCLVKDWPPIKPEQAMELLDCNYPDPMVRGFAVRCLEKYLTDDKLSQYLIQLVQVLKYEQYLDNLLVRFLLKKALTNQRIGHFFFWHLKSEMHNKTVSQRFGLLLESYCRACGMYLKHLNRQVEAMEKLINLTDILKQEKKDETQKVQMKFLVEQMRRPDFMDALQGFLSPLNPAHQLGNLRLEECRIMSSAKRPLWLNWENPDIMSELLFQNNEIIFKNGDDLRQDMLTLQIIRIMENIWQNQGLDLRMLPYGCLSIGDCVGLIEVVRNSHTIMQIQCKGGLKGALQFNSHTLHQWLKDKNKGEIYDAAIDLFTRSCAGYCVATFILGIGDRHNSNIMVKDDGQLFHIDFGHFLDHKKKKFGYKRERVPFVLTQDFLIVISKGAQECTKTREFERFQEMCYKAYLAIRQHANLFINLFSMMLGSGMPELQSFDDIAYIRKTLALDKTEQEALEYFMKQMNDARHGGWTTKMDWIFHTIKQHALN
T2 sequence (P27986 whole entry partner): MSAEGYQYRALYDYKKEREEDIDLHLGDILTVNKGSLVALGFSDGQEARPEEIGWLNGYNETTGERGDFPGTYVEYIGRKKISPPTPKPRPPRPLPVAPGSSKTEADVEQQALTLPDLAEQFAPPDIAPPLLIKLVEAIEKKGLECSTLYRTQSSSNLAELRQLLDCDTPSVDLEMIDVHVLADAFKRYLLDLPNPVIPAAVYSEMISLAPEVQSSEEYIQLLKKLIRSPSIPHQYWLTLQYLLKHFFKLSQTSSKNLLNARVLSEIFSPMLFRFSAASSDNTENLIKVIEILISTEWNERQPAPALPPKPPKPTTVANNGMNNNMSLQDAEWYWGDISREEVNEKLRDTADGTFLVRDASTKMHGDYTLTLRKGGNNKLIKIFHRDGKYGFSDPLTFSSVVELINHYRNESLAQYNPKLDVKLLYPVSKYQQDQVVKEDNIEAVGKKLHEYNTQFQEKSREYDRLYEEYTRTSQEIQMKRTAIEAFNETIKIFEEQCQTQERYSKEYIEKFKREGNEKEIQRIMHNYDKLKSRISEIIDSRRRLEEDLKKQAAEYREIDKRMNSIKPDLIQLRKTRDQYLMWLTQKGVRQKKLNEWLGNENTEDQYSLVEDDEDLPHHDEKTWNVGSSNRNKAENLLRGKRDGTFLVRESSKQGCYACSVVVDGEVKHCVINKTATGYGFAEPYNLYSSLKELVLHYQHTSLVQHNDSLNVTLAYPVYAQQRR

Broadly, the IC50 is the concentration at which inhibition is half-maximal. A high value points to a need for much substance. On to `Cc1cc([C@@H](C)Nc2ccc(Cl)cc2C(=O)O)c2oc(-c3ccc(F)c(F)c3)c(C)c(=O)c2c1` [Example 146, 5-Chloro-2-[[(1R)-1-[2-(3,4-difluorophenyl)-3,6-dimethyl-4-oxo-chromen-8-yl]ethyl]amino]benzoic acid], for which the IC50 was 1000 to 5000 nM in test [1]; 1000 to 5000 nM in test [2]; less than 50 nM in test [3] (Homo sapiens, MDA-MB-453, 3 h).
As to `Cc1cc(C(C)Nc2cccc(F)c2C(=O)O)c2oc(-c3ccccc3F)c(C)c(=O)c2c1` (single isomer, unassigned; isomer 2) [Example 104, 2-Fluoro-6-[1-[2-(2-fluorophenyl)-3,6-dimethyl-4-oxo-chromen-8-yl]ethylamino]benzoic acid, Isomer 2], the IC50 was greater than 10000 nM in test [1]; 500 to 1000 nM in test [2]; 100 to 500 nM in test [3] (Homo sapiens, MDA-MB-453, 3 h).
As to `Cc1cc([C@@H](C)Nc2ccccc2C(=O)O)c2oc(-c3cccc(F)c3F)c(C)c(=O)c2c1` [Example 92, 2-[[(1R)-1-[2-(2,3-Difluorophenyl)-3,6-dimethyl-4-oxo-chromen-8-yl]ethyl]amino]benzoic acid 2,2,2-trifluoroacetic acid], the IC50 in test [1] is 5000 to 10000 nM; in test [2], less than 500 nM; in test [3] (Homo sapiens, MDA-MB-453, 3 h), less than 50 nM.
For `Cc1cc([C@@H](C)Nc2ccc(C(F)(F)F)nc2C(=O)O)c2oc(-c3cccc(C#N)c3)c(C)c(=O)c2c1` [Example 126, 3-[[(1R)-1-[2-(3-Cyanophenyl)-3,6-dimethyl-4-oxo-chromen-8-yl]ethyl]amino]-6-(trifluoromethyl)pyridine-2-carboxylic acid] the same measures were 1000 to 5000 nM, less than 500 nM and less than 50 nM.
For `COC(=O)c1cccc(-c2oc3c([C@@H](C)Nc4ccccc4C(=O)O)cc(C)cc3c(=O)c2C)c1` [Example 150, 2-[[(1R)-1-[2-(3-Methoxycarbonylphenyl)-3,6-dimethyl-4-oxo-chromen-8-yl]ethyl]amino]benzoic acid] the same measures were 1000 to 5000 nM, less than 500 nM and less than 50 nM.
In the case of `Cc1cc(C(C)Nc2cccc(F)c2C(=O)O)c2oc(-c3ccccc3F)cc(=O)c2c1` (single isomer, unassigned; isomer 2) [Example 108, 2-Fluoro-6-[1-[2-(2-fluorophenyl)-6-methyl-4-oxo-chromen-8-yl]ethylamino]benzoic acid, Isomer 2], the IC50 in test [1] was greater than 10000 nM; in test [2] it was 5000 to 10000 nM; in test [3] (Homo sapiens, MDA-MB-453, 3 h) it was greater than 500 nM.
For `Cc1cc([C@@H](C)Nc2ccccc2C(=O)O)c2oc(-c3cccc(-c4cn[nH]c4)c3)c(C)c(=O)c2c1` [Example 167, 2-[[(1R)-1-[3,6-Dimethyl-4-oxo-2-[3-(1H-pyrazol-4-yl)phenyl]chromen-8-yl]ethyl]amino]benzoic acid], the half-inhibitory concentration (IC50) in test [1] was 500 to 1000 nM; in test [2], less than 500 nM; in test [3] (Homo sapiens, MDA-MB-453, 3 h) it was less than 50 nM.
Consider `Cc1cc([C@@H](C)Nc2ccccc2C(=O)O)c2oc(-c3ccc(-c4c[nH]nc4C)cc3)c(C)c(=O)c2c1` [Example 161, 2-[[(1R)-1-[3,6-Dimethyl-2-[4-(3-methyl-1H-pyrazol-4-yl)phenyl]-4-oxo-chromen-8-yl]ethyl]amino]benzoic acid], for which the IC50 in test [1] was 500 to 1000 nM; in test [2], less than 500 nM; in test [3] (Homo sapiens, MDA-MB-453, 3 h), less than 50 nM.
`Cc1cc(C(C)Nc2cccc(F)c2C(=O)O)c2oc(-c3cccc(F)c3)c(C)c(=O)c2c1` (single isomer, unassigned; isomer 1) [Example 105, 2-Fluoro-6-[1-[2-(3-fluorophenyl)-3,6-dimethyl-4-oxo-chromen-8-yl]ethylamino]benzoic acid, Isomer 1]: the results for the IC50 in test [1], in test [2] and in test [3] were 1000 to 5000 nM, less than 500 nM and less than 50 nM, respectively.
In the case of `Cc1cc([C@@H](C)Nc2ccccc2C(=O)O)c2oc(-c3ccc(F)cc3F)c(C)c(=O)c2c1` [Example 75, 2-[[(1R)-1-[2-(2,4-Difluorophenyl)-3,6-dimethyl-4-oxo-chromen-8-yl]ethyl]amino]benzoic acid], the concentration for half-maximal inhibition (IC50) in test [1] was 1000 to 5000 nM; in test [2] it was less than 500 nM; in test [3] (Homo sapiens, MDA-MB-453, 3 h), less than 50 nM.
For `Cc1cc(C(C)Nc2ccccc2C(=O)O)c2oc(-c3ccccc3)c(F)c(=O)c2c1` (stereo not drawn) [Example 111, 2-[1-(3-Fluoro-6-methyl-4-oxo-2-phenyl-chromen-8-yl)ethylamino]benzoic acid 2,2,2-trifluoroacetic acid] the same measures were 1000 to 5000 nM, less than 500 nM and less than 50 nM.
With `Cc1cc([C@@H](C)Nc2ccccc2C(=O)O)c2oc(-c3cccc(C(C)(C)C#N)c3)c(C)c(=O)c2c1` [Example 117, 2-[[(1R)-1-[2-[3-(1-Cyano-1-methyl-ethyl)phenyl]-3,6-dimethyl-4-oxo-chromen-8-yl]ethyl]amino]benzoic acid 2,2,2-trifluoroacetic acid], the IC50 is 1000 to 5000 nM in test [1]; less than 500 nM in test [2]; less than 50 nM in test [3] (Homo sapiens, MDA-MB-453, 3 h).
For `Cc1cc([C@@H](C)Nc2ccccc2C(=O)O)c2oc(-c3ccc(F)c(F)c3)cc(=O)c2c1` [Example 63, 2-[[(1R)-1-[2-(3,4-DifIuorophenyl)-6-methyl-4-oxo-chromen-8-yl]ethyl]amino]benzoic acid 2,2,2-trifluoroacetic acid] the same measures were 1000 to 5000 nM, less than 500 nM and less than 50 nM.
As for `Cc1cc([C@@H](C)Nc2ccc(C)nc2C(=O)O)c2oc(-c3ccccc3)c(C)c(=O)c2c1` [Example 39, 3-[[(1R)-1-(3,6-Dimethyl-4-oxo-2-phenyl-chromen-8-yl)ethyl]amino]-6-methyl-pyridine-2-carboxylic acid], the IC50 in test [1] is 1000 to 5000 nM; in test [2], less than 500 nM; in test [3] (Homo sapiens, MDA-MB-453, 3 h), less than 50 nM.
For `Cc1cc([C@@H](C)Nc2ccccc2C(=O)O)c2oc(-c3cccc(C(C)(C)C(N)=O)c3)c(C)c(=O)c2c1` [Example 118, 2-[[(1R)-1-[2-[3-(2-Amino-1,1-dimethyl-2-oxo-ethyl)phenyl]-3,6-dimethyl-4-oxo-chromen-8-yl]ethyl]amino]benzoic acid 2,2,2-trifluoroacetic acid] the same measures were 1000 to 5000 nM, less than 500 nM and 100 to 500 nM.
On the same counts, the results for `Cc1cc([C@@H](C)Nc2ccc(C)c(F)c2C(=O)O)c2oc(-c3ccccc3)c(C)c(=O)c2c1` [Example 43, 6-[[(1R)-1-(3,6-Dimethyl-4-oxo-2-phenyl-chromen-8-yl)ethyl]amino]-2-fluoro-3-methyl-benzoic acid] are 1000 to 5000 nM, less than 500 nM and 50 to 100 nM.
For `Cc1cc([C@@H](C)Nc2ccc(C(F)(F)F)cc2C(=O)O)c2oc(-c3ccccc3)c(C)c(=O)c2c1` [Example 37, 2-[[(1R)-1-(3,6-Dimethyl-4-oxo-2-phenyl-chromen-8-yl)ethyl]amino]-5-(trifluoromethyl)benzoic acid] the same measures were 1000 to 5000 nM, 500 to 1000 nM and 100 to 500 nM.
As for `Cc1cc(C(C)Nc2ccccc2C(=O)O)c2oc(-c3ccc(C4(C#N)CC4)cc3)cc(=O)c2c1` (single isomer, unassigned; isomer 1) [Example 52, 2-[1-[2-[4-(l-Cyanocyclopropyl)phenyl]-6-methyl-4-oxo-chromen-8-yl]ethylamino]benzoic acid, Isomer 1], the IC50 is 5000 to 10000 nM in test [1]; 5000 to 10000 nM in test [2]; greater than 500 nM in test [3] (Homo sapiens, MDA-MB-453, 3 h).
As to `Cc1cc([C@@H](C)Nc2ccc(C)nc2C(=O)O)c2oc(-c3cccc(C#N)c3)c(C)c(=O)c2c1` [Example 127, 3-[[(1R)-1-[2-(3-Cyanophenyl)-3,6-dimethyl-4-oxo-chromen-8-yl]ethyl]amino]-6-methyl-pyridine-2-carboxylic acid], the IC50 was 1000 to 5000 nM in test [1]; less than 500 nM in test [2]; 50 to 100 nM in test [3] (Homo sapiens, MDA-MB-453, 3 h).
In the case of `Cc1cc(C(C)Nc2ccccc2C(=O)O)c2oc(-c3cccc(C(C)(C)C#N)c3)cc(=O)c2c1` (single isomer, unassigned; isomer 1) [Example 4, 2-[1-[2-[3-(1-Cyano-1-methyl-ethyl)phenyl]-6-methyl-4-oxo-chromen-8-yl]ethylamino]benzoic acid, Isomer 1], the IC50 was greater than 10000 nM in test [1]; greater than 10000 nM in test [2]; greater than 500 nM in test [3] (Homo sapiens, MDA-MB-453, 3 h).
On to `Cc1cc([C@@H](C)Nc2ccc(Cl)nc2C(=O)O)c2oc(-c3cccc(C#N)c3)c(C)c(=O)c2c1` [Example 115, 6-Chloro-3-[[(1R)-1-[2-(3-cyanophenyl)-3,6-dimethyl-4-oxo-chromen-8-yl]ethyl]amino]pyridine-2-carboxylic acid 2,2,2-trifluoroacetic acid], for which the IC50 in test [1] was less than 500 nM; in test [2] it was less than 500 nM; in test [3] (Homo sapiens, MDA-MB-453, 3 h), less than 50 nM.
Turning to `Cc1cc([C@@H](C)Nc2ccc(C(F)(F)F)cc2C(=O)O)c2oc(-c3cccc(C#N)c3)c(C)c(=O)c2c1` [Example 128, 2-[[(1R)-1-[2-(3-Cyanophenyl)-3,6-dimethyl-4-oxo-chromen-8-yl]ethyl]amino]-5-(trifluoromethyl)benzoic acid], the half-maximal inhibitory concentration (IC50) was 1000 to 5000 nM in test [1]; less than 500 nM in test [2]; 50 to 100 nM in test [3] (Homo sapiens, MDA-MB-453, 3 h).

Values taken from patent US11873295B2, “Allosteric chromenone inhibitors of phosphoinositide 3-kinase (PI3K) for the treatment of disease” (Petra Pharma Corporation, priority 2021, dated 2024).
